In this assay the target is GABA-A receptor; anion channel. As to the kind of experiment: Inhibition of [3H]flunitrazepam binding to GABA-A central benzodiazepine receptor of bovine cerebral cortical membranes. More on the design: species or system Bos taurus.

Among the data in ChEMBL document CHEMBL1128077, “6,3'-Dinitroflavone, a novel high affinity ligand for the benzodiazepine receptor with potent anxiolytic properties” (Bioorg Med Chem Lett, 1995) are Ki values, retold here.

pKi: −log10 of the molar value.

For `O=c1cc(-c2cccc([N+](=O)[O-])c2)oc2ccc([N+](=O)[O-])cc12`, the pKi (usually the negative decadic logarithm of the Ki, by convention in mol/L) is 7.92.

In turn, `O=c1cc(-c2ccc([N+](=O)[O-])cc2)oc2ccc([N+](=O)[O-])cc12` showed a pKi of 4.77.
